# Assay results from patent US11198713B2, “Agents modulating beta-catenin functions and methods thereof” (FOG PHARMACEUTICALS, INC., priority 2017, dated 2021).
# Read-outs that look alike come from different tables or passages of the source.
# Key:
# [1] = target: T1, full-length beta-catenin (Axin site) (Homo sapiens, UniProt P35222); assay: Competition fluorescence polarization assay (Axin site probe); type: binding
# T1 construct: 15 nM full-length beta-catenin, 20 nM FITC labeled peptide in buffer
# T1 sequence (P35222 1-781): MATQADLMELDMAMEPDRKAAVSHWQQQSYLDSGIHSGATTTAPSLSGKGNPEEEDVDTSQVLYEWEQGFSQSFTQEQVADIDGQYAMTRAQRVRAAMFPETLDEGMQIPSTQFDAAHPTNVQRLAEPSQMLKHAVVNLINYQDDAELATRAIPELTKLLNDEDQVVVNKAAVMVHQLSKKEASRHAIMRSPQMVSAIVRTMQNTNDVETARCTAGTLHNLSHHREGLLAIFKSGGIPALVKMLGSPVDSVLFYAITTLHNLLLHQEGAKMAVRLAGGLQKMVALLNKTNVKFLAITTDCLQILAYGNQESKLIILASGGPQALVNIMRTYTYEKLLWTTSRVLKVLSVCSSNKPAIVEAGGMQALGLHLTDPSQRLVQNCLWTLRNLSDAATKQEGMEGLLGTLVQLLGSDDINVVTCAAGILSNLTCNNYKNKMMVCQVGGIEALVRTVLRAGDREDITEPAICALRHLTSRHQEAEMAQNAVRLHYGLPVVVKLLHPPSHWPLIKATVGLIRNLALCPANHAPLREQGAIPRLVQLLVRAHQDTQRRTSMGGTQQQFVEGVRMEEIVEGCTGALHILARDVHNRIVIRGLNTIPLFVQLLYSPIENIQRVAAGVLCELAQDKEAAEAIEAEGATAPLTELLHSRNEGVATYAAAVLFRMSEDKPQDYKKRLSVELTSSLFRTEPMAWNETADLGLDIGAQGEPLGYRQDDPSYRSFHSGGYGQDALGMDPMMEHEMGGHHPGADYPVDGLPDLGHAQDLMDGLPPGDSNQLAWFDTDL
# Method in brief: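 Competition FP: 15 nM full-length β-catenin pre-incubated 5 min with 20 nM FITC-labelled stapled Axin-site peptide, then titrated peptide added (3-fold series from 5 μM) for 15 min in the dark. Buffer 50 mM Tris pH 8.0, 250 mM NaCl, 2% glycerol, 0.5 mM EDTA; duplicate reads.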
# [2] = target: T2, biotinylated beta-catenin (Homo sapiens, UniProt P35222); assay: Surface Plasmon Resonance (Biacore); type: binding
# T2 sequence (P35222 1-781): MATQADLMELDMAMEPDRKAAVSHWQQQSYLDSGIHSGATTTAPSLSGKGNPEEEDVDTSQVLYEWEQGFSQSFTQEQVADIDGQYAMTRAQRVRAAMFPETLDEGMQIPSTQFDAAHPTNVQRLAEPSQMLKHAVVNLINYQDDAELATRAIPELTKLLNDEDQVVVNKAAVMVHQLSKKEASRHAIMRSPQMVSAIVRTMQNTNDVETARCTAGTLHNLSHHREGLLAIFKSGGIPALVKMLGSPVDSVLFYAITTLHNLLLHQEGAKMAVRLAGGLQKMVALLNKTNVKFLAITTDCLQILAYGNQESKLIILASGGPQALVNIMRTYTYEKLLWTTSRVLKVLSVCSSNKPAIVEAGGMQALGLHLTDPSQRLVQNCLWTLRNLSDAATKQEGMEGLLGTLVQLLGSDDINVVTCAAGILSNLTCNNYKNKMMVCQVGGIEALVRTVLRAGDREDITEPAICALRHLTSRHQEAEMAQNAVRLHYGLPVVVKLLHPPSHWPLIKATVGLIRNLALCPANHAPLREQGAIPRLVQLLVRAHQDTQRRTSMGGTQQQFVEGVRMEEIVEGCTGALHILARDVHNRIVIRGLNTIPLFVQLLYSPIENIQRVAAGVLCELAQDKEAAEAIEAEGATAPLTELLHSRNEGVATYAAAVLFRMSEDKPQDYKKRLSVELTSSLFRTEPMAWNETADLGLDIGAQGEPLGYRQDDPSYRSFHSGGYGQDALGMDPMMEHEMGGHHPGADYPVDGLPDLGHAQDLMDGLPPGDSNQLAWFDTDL
# Procedure: Additionally or alternatively, binding to beta-catenin may be measured by Surface Plasmon Resonance. In an exemplary assay, approximately 6 nmol dried peptide diluted in buffer (50 mM Tris pH 8.0, 300 mM NaCl, 2% glycerol, 0.5 mM TCEP, 0.5 mM EDTA, 0.005% Tween-20, 1 mg/mL CM Dextran, 0.02% w/v sodium azide) was assayed on a Biacore X100 using the Biacore Biotin CAPture Kit (GE Healthcare) and biotinylated beta-catenin. Results were analyzed using the Biacore X100 Evaluation Software. […] FPO217c (Isomer 2) bound to the armadillo domain of β-catenin with a Kd of 2 nM.
# [3] = Biacore, biotinylated beta-catenin, read-out: Kd
smiles,measurement,setting,value
"CC[C@H](C)[C@@H]1NC(=O)[C@@](C)(NC(=O)[C@H](CCC(N)=O)NC(=O)[C@@H]2CCCN2C(C)=O)CCCCCC=CCN2CC(C(=O)N[C@@H](Cc3c[nH]cn3)C(=O)N[C@H](C(=O)N[C@@H](CCCNC(=N)N)C(=O)N[C@@H](CCCNC(=N)N)C(=O)N[C@H](C(=O)N[C@@H](Cc3c[nH]c4ccccc34)C(=O)N[C@@H](CCCNC(=N)N)C(N)=O)C(C)C)C(C)C)(C2)NC(=O)[C@H](CC(=O)O)NC(=O)[C@H](CC(C)C)NC1=O (single isomer, unassigned) [FP0738a, Ac-P-Q-S7-I-L-D-MA-H-V-R-R-V-W-R-NH2]",EC50,"[1]; competition fluorescence polarization, Table 2, read-out: in vitro FP EC50",100 to 500 nM
same,Kd,"[2]; Table 2, read-out: Kd by SPR",43 nM
"CC[C@H](C)[C@@H]1NC(=O)[C@@]2(NC(=O)[C@H](CCC(N)=O)NC(=O)[C@@H]3CCCN3C(C)=O)CCN(CC=CCCCC[C@](C)(C(=O)N[C@@H](Cc3c[nH]cn3)C(=O)N[C@H](C(=O)N[C@@H](CCCNC(=N)N)C(=O)N[C@@H](CCCNC(=N)N)C(=O)N[C@H](C(=O)N[C@@H](Cc3c[nH]c4ccccc34)C(=O)N[C@@H](CCCNC(=N)N)C(N)=O)C(C)C)C(C)C)NC(=O)[C@H](CC(=O)O)NC(=O)[C@H](CC(C)C)NC1=O)C2 (single isomer, unassigned) [FP-0745a]",Kd,[2]; [3],~34 nM
"CC[C@H](C)[C@@H]1NC(=O)C2(NC(=O)[C@H](CCC(N)=O)NC(=O)[C@@H]3CCCN3C(C)=O)CN(C2)C(=O)OCC=CCCCC[C@](C)(C(=O)N[C@@H](Cc2c[nH]cn2)C(=O)N[C@H](C(=O)N[C@@H](CCCNC(=N)N)C(=O)N[C@@H](CCCNC(=N)N)C(=O)N[C@H](C(=O)N[C@@H](Cc2c[nH]c3ccccc23)C(=O)N[C@@H](CCCNC(=N)N)C(N)=O)C(C)C)C(C)C)NC(=O)[C@H](CC(=O)O)NC(=O)[C@H](CC(C)C)NC1=O (single isomer, unassigned) [FP-0725c, Ac-P-Q-Az-I-L-D-R6-H-V-R-R-V-W-R-NH2]",Kd,[2]; [3],~22 nM
"CC[C@H](C)[C@@H]1NC(=O)[C@](C)(NC(=O)[C@H](CCC(N)=O)NC(=O)[C@@H]2CCCN2C(C)=O)CCC=CCOC(=O)N2CC[C@](C(=O)N[C@@H](Cc3c[nH]cn3)C(=O)N[C@H](C(=O)N[C@@H](CCCNC(=N)N)C(=O)N[C@@H](CCCNC(=N)N)C(=O)N[C@H](C(=O)N[C@@H](Cc3c[nH]c4ccccc34)C(=O)N[C@@H](CCCNC(=N)N)C(N)=O)C(C)C)C(C)C)(C2)NC(=O)[C@H](CC(=O)O)NC(=O)[C@H](CC(C)C)NC1=O (single isomer, unassigned) [FP-0765c, Ac-P-Q-R4-I-L-D-PR-H-V-R-R-V-W-R-NH2]",Kd,[2]; [3],~13 nM
"CC[C@H](C)[C@@H]1NC(=O)[C@@](C)(NC(=O)[C@H](CCC(N)=O)NC(=O)[C@@H]2CCCN2C(C)=O)CCCCCC=CCN2CC(C(=O)N[C@@H](Cc3c[nH]cn3)C(=O)N[C@H](C(=O)N[C@@H](CCCNC(=N)N)C(=O)N[C@@H](CCCNC(=N)N)C(=O)N[C@H](C(=O)N[C@@H](Cc3c[nH]c4ccccc34)C(=O)N[C@@H](CCCNC(=N)N)C(N)=O)C(C)C)C(C)C)(C2)NC(=O)[C@H](CC(=O)O)NC(=O)[C@H](CC(C)C)NC1=O (single isomer, unassigned) [FP-0738a]",EC50,"[1]; competition with FITC labeled Axin-site probe, 15 nM full-length beta-catenin, read-out: FP EC50",200 nM
same,Kd,[2]; [3],~43 nM
